Source: patent US9718782B2, “TrkA kinase inhibitors, compositions and methods thereof” (MERCK SHARP & DOHME CORP, priority 2013, dated 2017)

Target: T1, TrkA receptor (Homo sapiens, UniProt P04629)
T1 construct: host or cells: U2OS (PathHunter, 'TrkA p75' cells)
Experiment: DiscoverX PathHunter TrkA functional assay (NGF-stimulated U2OS cells)
Format: cell-based
Details: U2OS cells expressing TrkA-Prolink fusion and Shc1-EA; compound 1 hour, then EC80 NGF 3 hours; luminescence
Protocol: TrkA functional activity was measured using a DiscoverX PathHunter assay. In this assay, U2OS cells are express TrkA receptor as a fusion with the weakly complementing fragment of B-galactosidase, which DiscoverX calls “Prolink (PK)”; additionally, Shcl is fused with a larger fragment, which is called “Enzyme Acceptor (EA)”. Activation of the TrkA receptor, upon NGF addition, results in the kinase domain being phosphorylated, resulting in subsequent recruitment of Shcl-EA protein. That recruitment results in an active B-galactosidase enzyme that is detected by addition of a chemiluminescent substrate.
All reagents were purchased from DiscoverX, except for the receptor agonists (NGF, BDNF, NT3) which were purchased from Peprotech. Cells were expanded and frozen into cryovials (TrkA p75 @passage 13, 1.5×10^7 cells/vial; TrkC p75 @passage 11, 1.5×10^7 cells/vial in InVitrogen Recovery Cell Freezing media), and stored in the vapor phase of liquid nitrogen, and thawed immediately before use. Thawed cells were added to a 384-well plate (BD Falcon 384-well white/clear, TC surface 120 uL assay plates (353963), 20 uL of 0.375e6 cells/mL=>7500 cells/well), and allowed to incubate overnight. Compound (10 mM starting dose: 202.5 nL compound yielding 0.81% DMSO final in total assay volume and starting doses 81 uM) was added the following morning and allowed to incubate on cells for 1 hour. Then, 5 uL EC80 of agonist (NGF for TrkA; BDNF for TrkB; NT3 for TrkC) was added and allowed to incubate for 3 hours at room temperature. DiscoverX PathHunter detection reagent is added (12 uL to plate and components diluted in parts as per kit instructions) and the plate is further incubated for 1 hour in the dark. The plate is read via luminescence on the Perkin Elmer Envision.

T1 sequence (P04629 33-796): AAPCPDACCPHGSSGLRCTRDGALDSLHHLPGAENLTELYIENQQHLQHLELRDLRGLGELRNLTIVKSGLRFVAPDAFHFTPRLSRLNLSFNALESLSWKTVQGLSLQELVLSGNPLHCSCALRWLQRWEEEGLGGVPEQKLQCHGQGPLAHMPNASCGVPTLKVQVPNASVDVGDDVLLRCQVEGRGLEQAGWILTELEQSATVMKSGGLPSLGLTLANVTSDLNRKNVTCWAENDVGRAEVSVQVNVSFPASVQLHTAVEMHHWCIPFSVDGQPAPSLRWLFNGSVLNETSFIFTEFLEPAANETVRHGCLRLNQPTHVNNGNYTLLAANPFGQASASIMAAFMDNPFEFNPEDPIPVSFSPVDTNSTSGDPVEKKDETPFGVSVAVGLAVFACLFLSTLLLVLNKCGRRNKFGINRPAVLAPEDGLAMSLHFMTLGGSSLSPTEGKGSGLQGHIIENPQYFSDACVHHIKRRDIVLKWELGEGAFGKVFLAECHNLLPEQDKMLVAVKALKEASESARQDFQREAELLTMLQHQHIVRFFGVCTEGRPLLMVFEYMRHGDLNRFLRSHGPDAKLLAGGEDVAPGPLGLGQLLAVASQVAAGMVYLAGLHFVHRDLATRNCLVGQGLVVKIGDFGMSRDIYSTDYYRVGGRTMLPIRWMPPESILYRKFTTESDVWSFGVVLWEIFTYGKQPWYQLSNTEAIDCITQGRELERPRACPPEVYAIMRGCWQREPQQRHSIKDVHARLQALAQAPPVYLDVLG

Point of comparison: `Cn1nccc1-c1cncc(NC(=O)NC2c3ccccc3-c3ccccc32)c1` [Compound 73, 1-(9H-fluoren-9-yl)-3-[5-(1-methyl-1H-pyrazol-5-yl)pyridin-3-yl]urea], IC50 2800 nM. Against it:
- O=C(Nc1cccc(-c2nnc3n2CCC3)c1)NC1c2ccccc2-c2ccccc21 [Compound 43, 1-[3-(6,7-dihydro-5H-pyrrolo[2,1-c] [1,2,4]triazol-3-yl)phenyl]-3-(9H-fluoren-9-yl)urea] — 22-fold lower, 130 nM
- CCn1cnnc1-c1cccc(NC(=O)NC2c3ccccc3-c3ccccc32)c1 [Compound 44, 1-[3-(4-ethyl-4H-1,2,4-triazol-3-yl)phenyl]-3-(9H-fluoren-9-yl)urea] — 6.8-fold lower, 410 nM
- O=C(Nc1cccc(-c2nc(C3CC3)n[nH]2)c1)NC1c2ccccc2-c2ccccc21 [Compound 45, 1-[3-(3-cyclopropyl-1H-1,2,4-triazol-5-yl)phenyl]-3-(9H-fluoren-9-yl)urea] — 2-fold lower, 1400 nM
- Cc1nnc(-c2cccc(NC(=O)NC3c4ccccc4-c4ccccc43)c2)o1 [Compound 46, 1-(9H-fluoren-9-yl)-3-[3-(5-methyl-1,3,4-oxadiazol-2-yl)phenyl]urea] — 4.2-fold lower, 660 nM
- Cc1nnc(-c2cccc(NC(=O)NC3c4ccccc4-c4ccccc43)c2)s1 [Compound 47, 1-(9H-fluoren-9-yl)-3-[3-(5-methyl-1,3,4-thiadiazol-2-yl)phenyl]urea] — 2.9-fold lower, 970 nM
- O=C(Nc1cccc(-c2nnc[nH]2)c1)NC1c2ccccc2-c2ccccc21 [Compound 48, 1-(9H-fluoren-9-yl)-3-[3-(4H-1,2,4-triazol-3-yl)phenyl]urea] — 7.8-fold lower, 360 nM
- O=C(Nc1cccc(-c2nnco2)c1)NC1c2ccccc2-c2ccccc21 [Compound 49, 1-(9H-fluoren-9-yl)-3-[3-(1,3,4-oxadiazol-2-yl)phenyl]urea] — the same, 2800 nM
- O=C(Nc1cccnc1-c1ccncc1)NC1c2ccccc2-c2ccccc21 [Compound 50, 1-(2,4′-bipyridin-3-yl)-3-(9H-fluoren-9-yl)urea] — 3.2-fold lower, 880 nM
- O=C(Nc1cccnc1-c1cccnc1)NC1c2ccccc2-c2ccccc21 [Compound 51, 1-(2,3′-bipyridin-3-yl)-3-(9H-fluoren-9-yl)urea] — within 1.5-fold, 3000 nM
- O=C(Nc1cccnc1-c1ccc(F)cc1)NC1c2ccccc2-c2ccccc21 [Compound 52, 1-(9H-fluoren-9-yl)-3-[2-(4-fluorophenyl)pyridin-3-yl]urea] — 28-fold lower, 100 nM
- O=C(Nc1cccnc1-c1ccnc(F)c1)NC1c2ccccc2-c2ccccc21 [Compound 53, 1-(9H-fluoren-9-yl)-3-(2′-fluoro-2,4′-bipyridin-3-yl)urea] — 5.2-fold lower, 540 nM
- O=C(Nc1cccnc1-c1ccco1)NC1c2ccccc2-c2ccccc21 [Compound 54, 1-(9H-fluoren-9-yl)-3-(2-furan-2-ylpyridin-3-yl)urea] — the same, 2800 nM
- O=C(Nc1cccnc1-c1ccoc1)NC1c2ccccc2-c2ccccc21 [Compound 55, 1-(9H-fluoren-9-yl)-3-(2-furan-3-ylpyridin-3-yl)urea] — 7.2-fold lower, 390 nM
- Cn1nc(-c2ccccc2)cc1NC(=O)NC1c2ccccc2-c2ccccc21 [Compound 56, 1-(9H-fluoren-9-yl)-3-(1-methyl-3-phenyl-1H-pyrazol-5-yl)urea] — 6.8-fold lower, 410 nM
- O=C(Nc1cccc(-n2cnnn2)c1)NC1c2ccccc2-c2ccccc21 [Compound 57, 1-(9H-fluoren-9-yl)-3-[3-(1H-tetrazol-1-yl)phenyl]urea] — 2.2-fold lower, 1300 nM
- Cc1nc(-c2ccccc2)c(NC(=O)NC2c3ccccc3-c3ccccc32)n1C [Compound 58, 1-(1,2-dimethyl-4-phenyl-1H-imidazol-5-yl)-3-(9H-fluoren-9-yl)urea] — 15-fold lower, 190 nM
- Cc1nc(-c2ccccc2)c(NC(=O)NC2c3ccccc3-c3ccccc32)[nH]1 [Compound 59, 1-(9H-fluoren-9-yl)-3-(2-methyl-4-phenyl-1H-imidazol-5-yl)urea] — 5.6-fold lower, 500 nM
- CCc1nnc(-c2cccc(NC(=O)NC3c4ccccc4-c4ccccc43)c2)o1 [Compound 60, 1-[3-(5-ethyl-1,3,4-oxadiazol-2-yl)phenyl]-3-(9H-fluoren-9-yl)urea] — 5-fold lower, 560 nM
- CN(C)C(=O)c1cccc(NC(=O)NC2c3ccccc3-c3ccccc32)c1 [Compound 61, 3-[(9H-fluoren-9-ylcarbamoyl)amino]-N,N-dimethylbenzamide] — 4.2-fold lower, 670 nM
- Cc1cnc(-c2cccc(NC(=O)NC3c4ccccc4-c4ccccc43)c2)o1 [Compound 62, 1-(9H-fluoren-9-yl)-3-[3-(5-methyl-1,3-oxazol-2-yl)phenyl]urea] — 2.2-fold lower, 1300 nM
- Cn1ccnc1-c1cccc(NC(=O)NC2c3ccccc3-c3ccccc32)c1 [Compound 63, 1-(9H-fluoren-9-yl)-3-[3-(l-methyl-1H-imidazol-2-yl)phenyl]urea] — 29-fold lower, 96 nM
- Cn1nnnc1-c1cccc(NC(=O)NC2c3ccccc3-c3ccccc32)c1 [Compound 64, 1-(9H-fluoren-9-yl)-3-[3-(l-methyl-1H-tetrazol-5-yl)phenyl]urea] — 8.5-fold lower, 330 nM
- Cc1nc(-c2cccc(NC(=O)NC3c4ccccc4-c4ccccc43)c2)oc1C [Compound 65, 1-[3-(4,5-dimethyl-1,3-oxazol-2-yl)phenyl]-3-(9H-fluoren-9-yl)urea] — 9-fold lower, 310 nM
- O=C(Nc1cccnc1)NC1c2ccccc2-c2ccccc21 [Compound 66, 1-(9H-fluoren-9-yl)-3-pyridin-3-ylurea] — within 1.5-fold, 3500 nM
- O=C(Nc1ncnn1-c1ccccc1)NC1c2ccccc2-c2ccccc21 [Compound 67, 1-(9H-fluoren-9-yl)-3-(1-phenyl-1H-1,2,4-triazol-5-yl)urea] — 1.7-fold higher, 4800 nM
- O=C(Nc1c(-c2ccco2)nc2ccccn12)NC1c2ccccc2-c2ccccc21 [Compound 68, 1-(9H-fluoren-9-yl)-3-(2-furan-2-ylimidazo[1,2-a]pyridin-3-yl)urea] — 2.9-fold lower, 970 nM
- O=C(Nc1c(-c2ccncc2)nc2ccccn12)NC1c2ccccc2-c2ccccc21 [Compound 69, 1-(9H-fluoren-9-yl)-3-(2-pyridin-4-ylimidazo[1,2-a]pyridin-3-yl)urea] — 3.6-fold lower, 770 nM
- O=C(Nc1conc1-c1ccccc1)NC1c2ccccc2-c2ccccc21 [Compound 70, 1-(9H-fluoren-9-yl)-3-(3-phenylisoxazol-4-yl)urea] — within 1.5-fold, 2200 nM
- Cc1cnc(-c2ccccc2)c(NC(=O)NC2c3ccccc3-c3ccccc32)c1 [Compound 71, 1-(9H-fluoren-9-yl)-3-(5-methyl-2-phenylpyridin-3-yl)urea] — 23-fold lower, 120 nM
- O=C(Nc1cncc(-c2cccnc2)c1)NC1c2ccccc2-c2ccccc21 [Compound 72, 1-(3,3′-bipyridin-5-yl)-3-(9H-fluoren-9-yl)urea] — 2-fold lower, 1400 nM
- Cn1ncnc1-c1cncc(NC(=O)NC2c3ccccc3-c3ccccc32)c1 [Compound 74, 1-(9H-fluoren-9-yl)-3-[5-(1-methyl-1H-1,2,4-triazol-5-yl)pyridin-3-yl]urea] — 2.8-fold lower, 990 nM
- O=C(Nc1cccnc1-c1cccc(F)c1)NC1c2ccccc2-c2ccccc21 [Compound 75, 1-(9H-fluoren-9-yl)-3-[2-(3-fluorophenyl)pyridin-3-yl]urea] — 15-fold lower, 190 nM
- O=C(Nc1cccnc1-c1ccccc1F)NC1c2ccccc2-c2ccccc21 [Compound 76, 1-(9H-fluoren-9-yl)-3-[2-(2-fluorophenyl)pyridin-3-yl]urea] — 8.8-fold lower, 320 nM
- Cc1ccccc1-c1ncccc1NC(=O)NC1c2ccccc2-c2ccccc21 [Compound 77, 1-(9H-fluoren-9-yl)-3-[2-(2-methylphenyl)pyridin-3-yl]urea] — 2.3-fold lower, 1200 nM
- Cc1nc(NC(=O)NC2c3ccccc3-c3ccccc32)n(-c2ccccc2)n1 [Compound 78, 1-(9H-fluoren-9-yl)-3-(3-methyl-1-phenyl-1H-1,2,4-triazol-5-yl)urea] — 5.4-fold lower, 520 nM
- Cn1ncnc1-c1cccc(NC(=O)NC2c3ccccc3-c3ccccc32)c1 [Compound 79, 1-(9H-fluoren-9-yl)-3-[3-(1-methyl-1H-1,2,4-triazol-5-yl)phenyl]urea] — 38-fold lower, 73 nM
- O=C(Nc1ccnc(-c2ccccc2)c1)NC1c2ccccc2-c2ccccc21 [Compound 80, 1-(9H-fluoren-9-yl)-3-(2-phenylpyridin-4-yl)urea] — 4.2-fold lower, 670 nM
- Cc1nc(-c2ccccc2)c(NC(=O)NC2c3ccccc3-c3ccccc32)o1 [Compound 81, 1-(9H-fluoren-9-yl)-3-(2-methyl-4-phenyl-1,3-oxazol-5-yl)urea] — within 1.5-fold, 3900 nM
- Cn1ccnc1-c1cncc(NC(=O)NC2c3ccccc3-c3ccccc32)c1 [Compound 82, 1-(9H-fluoren-9-yl)-3-[5-(1-methyl-1H-imidazol-2-yl)pyridin-3-yl]urea] — 11-fold lower, 260 nM
- O=C(Nc1cccnc1-n1cccn1)NC1c2ccccc2-c2ccccc21 [Compound 83, 1-(9H-fluoren-9-yl)-3-[2-(1H-pyrazol-1-yl)pyridin-3-yl]urea] — within 1.5-fold, 3000 nM
- O=C(Nc1cc(F)cnc1-c1ccccc1)NC1c2ccccc2-c2ccccc21 [Compound 84, 1-(9H-fluoren-9-yl)-3-(5-fluoro-2-phenylpyridin-3-yl)urea] — 60-fold lower, 47 nM
